Entries after “also recorded” stand apart in the source; their conditions may differ. Where a SMILES comes first, the peptide text is derived from it. [ ]: non-standard residue; d: D form. The star is where a group is joined. Palmitoyl = CCCCCCCCCCCCCCCC(=O)*

Results on six compounds are retold here after patent EP4458977A1, “SELF-ASSEMBLING PEPTIDE AMPHIPHILES AS RETROVIRAL TRANSDUCTION ENHANCERS” (Max-Planck-Gesellschaft zur Förderung der Wissenschaften …, priority 2023, dated 2024).

Data set [1] relates to HIV-1. The settings on record: for Infectivity enhancing N fold at 1.3 µM: relative to virus only; for enhancement of HIV-1 infection / transduction (in words): 6.5 µM, 1.3 µM, 0.26 µM.
Protocol: HIV-1 Infection Assay with TZM-bl cells: The effect of peptide fibrils on HIV-1 infection was studied via a luminescence assay for β-galactosidase, which was reported by TZM-bl cells upon infection. The HIV-1 infection assay was conducted in three technical replicates and repeated in three independent experiments unless stated otherwise.
Data set [2] deals with HeLa cells. In words: Confocal laser scanning microscopy and degradation study with PA library and HeLa cells. Format: cell-based. The settings on record: for association with cellular membranes: 2 µg added to 20.000 HeLa cells, 30 min; for degradability (in words) / Degradability / % (rel. to initial particles > 10 µm^2): HeLa cells; for degradability (in words): 3 days; for Degradability / % (rel. to initial particles > 10 µm^2): 3 d relative to 30 min; for aggregate number increases / aggregate number decreases / degraded in presence of HeLa cells within 3 days: d3 relative to d0. The method, then: In general, the procedure for determine whether a PA is degraded or not, is conducted by confocal laser scanning microscopy of Proteostat stained PAs which are added to Hela cells (2 µg peptide added to 20.000 cells). Microscopy is conducted at day 0 (d0, after 30 min of incubation) and at day 3 (d3, after 72 h of incubation). The number of aggregates >10 µm^2 is counted via 3D object counter in imaged in an area of 1008 µm × 1008 µm.
A PA is considered to be degradable if the number and the size of aggregates are reduced after 3 days. The efficiency is determined by the percentual degradation (aggregate number at d3 / aggregate number at d0). For the number of aggregation three technical replicates were evaluated for each sample. A large deviation represents a nonhomogeneous spatial distribution of aggregates.
Confocal laser scanning microscopy and degradation study with PA library and HeLa cells: Confocal laser scanning microscopy studies were performed for the visualization of the cell-PA interaction. HeLa cells were seeded one day prior to conducting the assay (20,000/well) in an 8-well IBIDI slide. […] The nucleus of the HeLa cells was stained with Hoechst 33342 (NucBlue™, Thermo Fisher Scientific). The peptide solution mixture was transferred to the HeLa cells and incubated for 30 min at 37°C before washing three times with PBS. […] For the evaluation of aggregate degradation, the samples were further incubated at 37°C for 3 d and analyzed without any additional washing step. […] The number of aggregates were determined by counting aggregates larger than the threshold 10 µm^2 in an area of 1008 × 1008 µm and repeated in three technical triplicates.

Data set [3] is described as follows: TEM of peptide assemblies (fibril formation / assembly). Format: physicochemical. To be noted: for TEM morphology (in words): 1 mg/mL in PBS; for Assembly without hydrophob residue: corresponding peptide without hydrophobic moiety; for Assembly: peptide amphiphile. How it is done:
The peptides were predissolved in DMSO to a concentration of 10 mg/mL. The fibril formation was induced by further diluting the solution to a final incubation concentration of 650 µM or 1 mg/mL in PBS as indicated in the text and incubated for 1 d (1 day) at rt (room temperature, 20 °C - 25 °C). Other concentrations as described herein were achieved by further dilution of preformed fibrils.
(§1) Transmission electron microscopy (TEM) measurements, Thioflavin (ThT), zeta-potential measurements for fibril characterization were prepared and conducted according to prior art procedures. […] Fibrils were defined as distinct, if no visible structures could be identified in fluorescence and brightfield microscopy.

Data set [4] in a line: ATR-FT-IR determination of β-sheet content. Type of data set: physicochemical. The settings on record: 1 mg/mL in PBS lyophilized; integral at 1630 cm^-1 relative to 1650-1700 cm^-1. The method, then:
ATR-FT-IR: ATR-IR spectra acquisition and the calculation of β-sheet content were conducted according prior art procedures. Briefly, FT-IR spectra of solid samples were recorded after lyophilization of fibril solutions using a Bruker Tensor II spectrometer equipped with a diamond crystal as ATR element with a spectral resolution of 2 cm^-1, each spectrum was an average of 64 scans. The data was processed with Origin software. β-sheet amount was determined by calculating the integral of the peak at 1630 cm-1 (β-sheet) relative to the integral between 1650-1700 cm-1 (native structure) from the 2nd derivative of the FT-IR spectra.

The nature of data set [5]: Fluorescence microscopy of ThT-stained fibrils (µm-sized aggregates). Format: physicochemical. The settings on record: 1 mg/mL stained with 50 µM ThT. The method, then: as §1
Fluorescence microscopy: 1 µL Fibrils (1 mg mL^-1) were stained with 9 µL, 50 µM ThT. 10 µL of the stained fibrils (0.1 mg mL^-1) were placed on a microscopy glass. Fluorescence microscopy measurements were performed on a Leica DMi8 microscope with 10x air objective and equipped with a Leica MC170 HD camera with a filter setting λem = 527/30 nm upon excitation at λex = 480/40 nm) and processed with the Leica LASX software.
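For Infectivity enhancing N fold at 1.3 µM in this document: TZM-bl reporter cells exposed to HIV-1 with peptide fibrils, infection read out as β-galactosidase luminescence, compared with virus alone.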
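For enhancement of HIV-1 infection / transduction (in words) in this document: TZM-bl reporter cells exposed to HIV-1 with peptide fibrils, infection read out as β-galactosidase luminescence, compared with virus alone.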
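For enhances infectivity at 1.3 µM concentration, times more efficient compared to virus only infection in this document: TZM-bl reporter cells exposed to HIV-1 with peptide fibrils, infection read out as β-galactosidase luminescence, compared with virus alone.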
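For infectivity enhancement at 1.3 µM concentration compared to virus only infection (in words) in this document: TZM-bl reporter cells exposed to HIV-1 with peptide fibrils, infection read out as β-galactosidase luminescence, compared with virus alone.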

As for `CCCCCCCCCCCCCCCC(=O)N[C@@H](C(=O)N[C@@H](C(=O)N[C@@H](C(=O)N[C@H](C)C(=O)N[C@H](C)C(=O)N[C@H](C)C(=O)N[C@H](CCCCN)C(=O)N[C@H](CCCCN)C(=O)N[C@H](CCCCN)C(N)=O)C(C)C)C(C)C)C(C)C` [Pat14, C16-vvvaaakkk-NH2] (Palmitoyl-[dV][dV][dV][dA][dA][dA][dK][dK][dK]-NH2), in data set [1], the “enhances infectivity at 1.3 µM concentration, times more efficient compared to virus only infection” value is on record as 7 times and the “Infectivity enhancing N fold at 1.3 µM” value came out at 7±1 N fold. In addition, in data set [2], the “association with cellular membranes” value is listed as “association with cellular membranes”, the “degradability (in words)” value is recorded as “is not degraded; also recorded: cannot be degraded; also recorded: non-degradable PA”, the “Degradability / % (rel. to initial particles > 10 µm^2)” value (“Degradability / %” below) is -116% and the aggregate number increases amounted to 116%. For the same compound, in data set [3], the “TEM morphology (in words)” value is on record as “fibrillar morphologies”, the “Assembly without hydrophob residue” value was “No” and the Assembly result was “Yes”. The β-sheet amount in data set [4] is 49%. Also, the “fluorescent, µm-sized aggregates (ThT staining)” value (from here on “fluorescent … (ThT staining)”) in data set [5] was “fluorescent, µm-sized aggregates”.
On to `CCCCCCCCCCCCCCCC(=O)N[C@@H](C)C(=O)N[C@@H](CCC(N)=O)C(=O)N[C@@H](C)C(=O)N[C@@H](CCCCN)C(=O)N[C@@H](C)C(=O)N[C@@H](CCCCN)C(N)=O` [Pat16, C16-AQAKAK-NH2] (Palmitoyl-AQAKAK-NH2), for which, in data set [1], the “enhances infectivity at 1.3 µM concentration, times more efficient compared to virus only infection” value is reported as 4 times; the “enhancement of HIV-1 infection / transduction (in words)” value is on record as “do not efficiently enhance infectivity”; the “Infectivity enhancing N fold at 1.3 µM” value is 4±1 N fold. Besides, in data set [2], the “degradability (in words)” value was “cannot be degraded; also recorded: non-degradable PA”, the “Degradability / %” value was -83% and the aggregate number increases amounted to 83%. Also, in data set [3], the “TEM morphology (in words)” value is on record as “fibrillar morphologies”, the “Assembly without hydrophob residue” value was “No” and the Assembly entry is recorded as “Yes”. Further, in data set [4], the β-sheet amount is given as 50%. The “fluorescent … (ThT staining)” value in data set [5] was “fluorescent, µm-sized aggregates”.
For `CCCCCCCCCCCCCCCC(=O)N[C@@H](Cc1c[nH]c2ccccc12)C(=O)N[C@@H](CCC(=O)O)C(=O)N[C@@H](C)C(=O)N[C@@H](CC(C)C)C(=O)N[C@@H](CCCCN)C(=O)N[C@@H](CCCCN)C(N)=O` [Pat17, C16-WEALKK-NH2] (Palmitoyl-WEALKK-NH2), in data set [1], the “infectivity enhancement at 1.3 µM concentration compared to virus only infection (in words)” value is listed as “does not enhance infectivity”, the “enhancement of HIV-1 infection / transduction (in words)” value is given as “no infectivity enhancement can be observed” and the “Infectivity enhancing N fold at 1.3 µM” value amounted to 1±0 N fold. In addition, the “association with cellular membranes” value in data set [2] is “no association with cellular membranes”. Further, in data set [3], the “TEM morphology (in words)” value is given as “not forming fibrils; also recorded: amorphous aggregate morphology”, the “Assembly without hydrophob residue” value is “No” and the Assembly entry is recorded as “No”. Besides, in data set [4], the β-sheet amount worked out at 38%. In addition, the “fluorescent … (ThT staining)” value in data set [5] is given as “fluorescent, µm-sized aggregates”.
Turning to `CCCCCCCCCCCCCCCC(=O)N[C@@H](C)C(=O)N[C@H](C(=O)N[C@@H](C)C(=O)N[C@@H](CCCCN)C(=O)N[C@@H](CCCCN)C(=O)N[C@@H](CCCCN)C(N)=O)C(C)C` [Pat21, C16-AVAKKK-NH2] (Palmitoyl-AVAKKK-NH2), in data set [1], the “enhances infectivity at 1.3 µM concentration, times more efficient compared to virus only infection” value was found to be 2 times; the “enhancement of HIV-1 infection / transduction (in words)” value is “no infectivity enhancement can be observed”; the “Infectivity enhancing N fold at 1.3 µM” value is given as 2±0 N fold. Also, in data set [2], the “association with cellular membranes” value is recorded as “association with cellular membranes”, the “degradability (in words)” value was “can be degraded; also recorded: not efficiently degradable; also recorded: degradable PA”, the “Degradability / %” value amounted to 68% and the “aggregate number decreases / degraded in presence of HeLa cells within 3 days” value was found to be 84%. Moreover, in data set [3], the “TEM morphology (in words)” value is recorded as “fibrillar morphologies”, the “Assembly without hydrophob residue” value is “No” and the Assembly result was “Yes”. The β-sheet amount in data set [4] was 45%. Moreover, the “fluorescent … (ThT staining)” value in data set [5] was “fluorescent, µm-sized aggregates”.
As to `CCCCCCCCCCCCCCCC(=O)N[C@H](C(=O)N[C@H](C(=O)N[C@@H](C)C(=O)N[C@@H](C)C(=O)N[C@@H](Cc1c[nH]cn1)C(=O)N[C@@H](Cc1c[nH]cn1)C(=O)N[C@@H](Cc1c[nH]cn1)C(N)=O)C(C)C)C(C)C` [Pat24, C16-VVAAHHH-NH2] (Palmitoyl-VVAAHHH-NH2), in data set [1], the “infectivity enhancement at 1.3 µM concentration compared to virus only infection (in words)” value was “does not enhance infectivity”, the “enhancement of HIV-1 infection / transduction (in words)” value was “do not efficiently enhance infectivity” and the “Infectivity enhancing N fold at 1.3 µM” value was 2±0 N fold. For the same compound, in data set [2], the “association with cellular membranes” value is on record as “association with cellular membranes”, the “degradability (in words)” value is reported as “cannot efficiently be degraded; also recorded: not efficiently degradable; also recorded: non-degradable PA”, the “Degradability / %” value came to 26% and the “aggregate number decreases / degraded in presence of HeLa cells within 3 days” value is 26%. Moreover, in data set [3], the “TEM morphology (in words)” value is listed as “fibrillar morphologies”, the “Assembly without hydrophob residue” value was “No” and the Assembly entry is reported as “Yes”. For the same compound, the β-sheet amount in data set [4] is given as 70%. Also, in data set [5], the “fluorescent … (ThT staining)” value was “fluorescent, µm-sized aggregates”.
Regarding `CCCCCCCCCCCCCCCC(=O)N[C@@H](CCCCN)C(=O)NCC(=O)N[C@H](C(=O)N1CCC[C@H]1C(=O)NCC(=O)N[C@H](C(=O)NCC(=O)N[C@@H](CCCCN)C(N)=O)C(C)C)C(C)C` [Pat25] (Palmitoyl-KGVPGVGK-NH2), in data set [1], the “infectivity enhancement at 1.3 µM concentration compared to virus only infection (in words)” value is recorded as “do not enhance infectivity”, the “enhancement of HIV-1 infection / transduction (in words)” value is “no infectivity enhancement can be observed” and the “Infectivity enhancing N fold at 1.3 µM” value is listed as 1±0 N fold. The “association with cellular membranes” value in data set [2] is recorded as “no association with cellular membranes”. Further, in data set [3], the “TEM morphology (in words)” value is “not forming fibrils; also recorded: no fibrillar morphologies”, the “Assembly without hydrophob residue” value is recorded as “Yes” and the Assembly result was “No”. The compound further yielded a β-sheet amount in data set [4] of 0%. For the same compound, the “fluorescent … (ThT staining)” value in data set [5] is “fluorescent, µm-sized aggregates”.
